From BindingDB's records for doi:10.1021/jm980637h (Japan Energy, 1999)

Biological target: T1, Dimer of Gag-Pol polyprotein [489-587] (Human immunodeficiency virus 1, UniProt P12497)
T1 construct: 489-587
Assay: Protease Inhibition Assay
Settings: pH 6; 37 °C
Method: Sensitivity of HIV-1 protease activity to protease inhibitors was determined by a peptide substrate cleavage assay. Substrates and cleavage fragments were separated by reverse-phase HPLC, detected by absorbance at 215 nm, and quantified by comparison with a synthetic product standard.

SMILES	Ki [nM]
CCc1c(O)cccc1C(=O)N[C@@H](Cc1ccccc1)[C@H](O)C(=O)N1CSC(C)(C)[C@H]1C(=O)NCc1ccccc1C [(R)-N-(2-Methylbenzyl)-3-[(2S,3S)-3-(2-ethyl-3-hydroxybenzoyl)amino-2-hydroxy-4-phenylbutanoyl]-5,5-methyl-1,3-thiazolidine-4-carboxamide]	0.16
CSC[C@H](NC(=O)COc1cccc2cnccc12)C(=O)N[C@@H](Cc1ccccc1)[C@H](O)C(=O)N1CSC[C@H]1C(=O)NC(C)(C)C [Kynostatin 272]	0.74
CSC[C@H](NC(=O)COc1cccc2cnccc12)C(=O)N[C@@H](Cc1ccccc1)[C@H](O)C(=O)N1CSC(C)(C)[C@H]1C(=O)NC(C)(C)C	0.088
